Assay results reported in patent publication US20090227518A1, “COMPOSITIONS AND METHODS FOR TREATING ACTIN-MEDIATED MEDICAL CONDITIONS” (The Regents of the University of Colorado, priority 2005, published 2009).

Tested on: F-actin
Test: F-actin filament depolymerization
Type: biochemical
Conditions: added to preformed F-actin filaments
Method: In separate experiments (data not shown), F-actin filaments were produced and AAT was added to determine if AAT had depolymerization properties. As a control, Getsolin™, a protein that has known depolymerization properties, was added to F-actin filaments.

| Compound | depolymerization of F-actin filaments |
| --- | --- |
| gelsolin | actively dissociate |

Biological target: F-actin (filamentous actin)
Test: F-actin co-sedimentation, 150,000 x g, SDS-PAGE densitometry, eight replicates
Conditions: not given

| Compound | fold increase in actin-sedimented AAT against AAT only [fold] | percentage of AAT sedimented in the presence of actin (AAT only = 100%) [%] |
| --- | --- | --- |
| α1-antitrypsin (AAT), purified from human plasma | 1.7 | 268 |

Tested on: HIV-1 strain A018A
Test: not given
Type: cell-based, human
Conditions: alone or in combination
Excerpt: The MAGI (Multinuclear Activation of a Galactosidase Indicator)-CCR-5 cell line is a clone derived from the HeLa cell line that expresses high levels of CD4. It has been transfected with a single integrated copy of a galactosidase gene under control of the HIV-1 long terminal repeat. β-Galactosidase is expressed upon production of HIV-1 Tat protein following one round of HIV-1 replication within the cell. The MAGI-CCR-5 cell line is derived from MAGI cells into which the CCR-5 HIV-1 co-receptor gene has been incorporated. These cells constitute an assay for early infection events and can be infected with either lymphocyte-tropic or macrophage-tropic HIV-1 strains.
Cells were cultured in polystyrene T-175 flasks in medium until cells were noted to be in log growth phase. Cells were then resuspended in fresh medium and aliquoted into 24-well polystyrene plates at 4×10^4 cells per well (1.0 ml total volume). After 24 hr incubation adherent cells were 30-40% confluent and medium was removed. Two hundred μl of fresh medium was then added to each well without (negative control) or with AAT and incubated for 1 hour. AAT diluent was added to a separate well at a volume equivalent to that of the highest concentration of AAT tested (control).
One hundred thirty TCID50 of HIV-1 and DEAE dextran in medium were added to each well. T-cell tropic HIV-1 strain A018A was used. After 2 hr incubation, medium was added to each well to adjust the final volume of each well to 500 μl. Cultures were incubated for 48 hr, which allowed infection of the MAGI-CCR-5 cells. Medium was aspirated and the cells fixed for 5.0 min at room temperature by adding 1.0 ml of a 1% formaldehyde/0.2% glutaraldehyde solution in phosphate buffered saline (PBS). Fixing solution was then aspirated and cells washed with PBS. This was followed by addition of galactosidase staining solution. Fifty minutes of incubation was followed by a blinded optical count of pigmented cells under a microscope.
The MAGI-CCR-5 cell assay evaluates early events in the HIV-1 infection process. These events include cell-surface binding and internalization, uncoating, reverse transcription and translation, protein processing and Tat activity. Binding of the tat protein to a reporter construct within the MAGI-CCR-5 cells enables quantification of these early HIV-1 events.

| Compound | antiviral activity in MAGI cultures |
| --- | --- |
| AVFLM: short peptide homologous/analogous to the C-terminal region of AAT | active |
| FAFLM: short peptide homologous/analogous to the C-terminal region of AAT | active |
| FIIMI: short peptide homologous/analogous to the C-terminal region of AAT | active |
| FLFAV: short peptide homologous/analogous to the C-terminal region of AAT | active |
| FLFCI: short peptide homologous/analogous to the C-terminal region of AAT | active |
| FLFFI: short peptide homologous/analogous to the C-terminal region of AAT | active |
| FLFLI: short peptide homologous/analogous to the C-terminal region of AAT | active |
| FLFVL: short peptide homologous/analogous to the C-terminal region of AAT | active |
| FLFVV: short peptide homologous/analogous to the C-terminal region of AAT | active |
| FLMFI: short peptide homologous/analogous to the C-terminal region of AAT | active |
| FLMII: short peptide homologous/analogous to the C-terminal region of AAT | active |
| FLVFI: short peptide homologous/analogous to the C-terminal region of AAT | active |
| FMLLI: short peptide homologous/analogous to the C-terminal region of AAT | active |
| FVALM: short peptide homologous/analogous to the C-terminal region of AAT | active |
| FVFAM: short peptide homologous/analogous to the C-terminal region of AAT | active |
| FVFLA: short peptide homologous/analogous to the C-terminal region of AAT | active |
| FVFLM: short peptide from the C-terminal region of AAT | active |
| FVYLI: carboxyterminal peptide analyzed for its effect on HIV-1 | active |

Biological target: porcine elastase (Sus scrofa, UniProt P00772)
Test: Elastase neutralization assay
Type: biochemical
Conditions: cleavable color-generating substrate
Method: The anti-serine protease function of AAT was examined for its role in the inhibitory effects on HIV-1. AAT was modified to reduce its serine protease inhibitory function to undetectable levels. Quantitation of the anti-protease activity of AAT was determined using an elastase neutralization assay. In this assay porcine elastase was incubated with a cleavable substrate. Upon cleavage of the substrate by elastase, a color-generating product was released, which was quantitated using a spectrophotometer. […] The inactivated AAT was then added to U1 cells, which was then stimulated with IL-18 and compared to native AAT.

porcine elastase, sequence (P00772 27-266): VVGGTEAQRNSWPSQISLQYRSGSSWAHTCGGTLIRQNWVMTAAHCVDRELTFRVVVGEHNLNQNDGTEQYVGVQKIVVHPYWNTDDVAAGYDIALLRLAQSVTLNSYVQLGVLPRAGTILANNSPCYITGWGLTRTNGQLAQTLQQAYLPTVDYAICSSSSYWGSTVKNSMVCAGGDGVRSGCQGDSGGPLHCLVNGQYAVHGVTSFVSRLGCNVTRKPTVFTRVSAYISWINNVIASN

| Compound | anti-protease (elastase inhibitory) activity |
| --- | --- |
| Oxidized AAT: AAT oxidized by myeloperoxidase (MPO) system; loss of activity confirmed by elastase activity assay | Loss of activity |

Tested on: peritoneal cellular infiltrate
Test: Thioglycolate-elicited peritoneal infiltration
Type: in vivo, mice
Conditions: 1 mg
Method: Peritoneal lavage was performed at 24 and 48 hours (thioglycolate) or on days 1-5 (allogeneic cells). For lavage, mice were anesthetized by isoflurane inhalation and injected immediately with 5.5 ml cold PBS containing 5% FCS and 5 U/ml heparin into the peritoneal cavity. After massaging the abdomen, peritoneal fluid was recovered with an 18.5 G needle and syringe. Recovered volumes ranged from 4.5 to 5.5 ml. Red blood cells were lysed (RBC lysing buffer, BD PharMingen) and cell counts were performed with a hemocytometer. Cells were then centrifuged and the pellet was resuspended in wash buffer containing 2% BSA, 0.1% sodium azide and 0.1% EDTA. Cells were kept at 4° C. throughout the staining procedure. Cells (at least 1×10^6/polypropylene vial) were incubated with FcγRIII/II receptor blocking antibodies (Table 1) for 10 min. […] The number of cells expressing a particular marker was calculated by multiplying percentages obtained from flow-cytometry by the concentration of cells in lavage fluid.
To address the possibility that AAT affects immune cell infiltration, two models of cell emigration were examined: thioglycolate (ThG)-elicited peritoneal infiltration, and cellular infiltration due to intraperitoneal injection of MHC-incompatible fibroblasts. […] Peritoneal lavage was performed 24 and 48 hours later and cells were counted and stained with specific antibodies for FACS analysis.

| Compound | cellular infiltrate |
| --- | --- |
| Oxidized AAT: AAT oxidized by myeloperoxidase (MPO) system; loss of activity confirmed by elastase activity assay | did not affect cellular infiltrate |

Tested on: NF-κB
Test: IL-18-induced NF-κB expression
Type: cell-based
Conditions: induced by IL-18
Excerpt: P3 inh is also known as CE-2072 or (benzyloxycarbonyl)-L-valyl-N-[1-(2-(3-methylbenzyl)-1,3,4-oxadiazolyl]carbonyl)-2-(S)-methylpropyl]-L-prolinamide. Methods of preparing P3 inh and its derivatives are disclosed in U.S. Pat. No. 5,807,829, which is incorporated by reference herein. […] A band that corresponds to IL-18-induced NF-κB was much larger than NF-κB in controls not stimulated by IL-18. […] This was an unexpected observation as these compounds are not known to interfere with NF-κB expression.

| Compound | NF-κB expression |
| --- | --- |
| Cc1cccc(Cc2nnc(C(=O)C(NC(=O)[C@@H]3CCCN3C(=O)[C@@H](NC(=O)OCc3ccccc3)C(C)C)C(C)C)o2)c1 (stereo partly shown) [P3 inh] | reduced |

Tested on: HIV-1
Test: U1 monocytic cell assay (HIV-1 p24 antigen)
Conditions: same experimental condition as in Example 7
Method: The U1 cell line was derived from human monocytic U937 cells into which 2 copies of HIV-1 provirus were incorporated into host genome. […] U1 cells were maintained in T-175 polystyrene flasks (Falcon, Becton Dickinson, Franklin Lakes, N.J.) in medium and used when in log phase growth. Cells were counted in a hemacytometer, examined for viability by Trypan blue exclusion (>95% for all experiments) and resuspended in fresh medium at 2×10^6 per ml. Two-hundred fifty μl of cell suspension were added to wells of 24-well polystyrene tissue culture plates (Falcon), followed by the addition of medium or AAT to produce the final concentration to be tested in a volume of 450 μl. After 1.0 hr of incubation (37° C., 5% CO2), 50 μl of medium (control) or stimulus diluted in medium were added to wells to produce the final concentration of stimulus to be tested. The final culture volumes were 500 μl and contained 1×10^6 cells per ml. […]
Data are presented as means±SEM. […] For data expressed as percent change, the values for p24 in control cultures (medium alone) were subtracted from those for each culture-containing stimulus. […] Percent p24 in cultures containing stimulus and AAT were calculated by dividing the measured p24 by that present in cultures containing stimulus alone. The resultant fraction was expressed as a percent.

| Compound | anti-HIV-1 effect |
| --- | --- |
| Cc1cccc(Cc2nnc(C(=O)C(NC(=O)[C@@H]3CCCN3C(=O)[C@@H](NC(=O)OCc3ccccc3)C(C)C)C(C)C)o2)c1 (stereo partly shown) [P3 inh] | significant anti-HIV-1 effect |
